# Measurements from article PMC4591937 (Science translational medicine, 2015).
# Assays:
# [1] = Drug distribution / pharmacokinetics in OVX rats; format: in vivo, rat
# [2] = tested on: lipid peroxidation; assay: Inhibition of lipid peroxidation, ferric thiocyanate; format: biochemical; details: average ± SEM, n = 3
# [3] = tested on: lipid peroxidation; assay: Inhibition of lipid peroxidation, thiobarbituric acid reactive substances; format: biochemical; details: average ± SEM, n = 3
# [4] = Binding to human plasma proteins by rapid equilibrium dialysis; format: in vitro ADME
# [5] = tested on: ERE-luciferase reporter under transcriptional control of ERs; assay: Bioluminescence imaging in OVX repTOP ERE-Luc mice; format: in vivo, mouse; details: DHED s.c. or p.o. ≥200 μg/kg; E2 s.c. 20 μg/kg
# [6] = tested on: uterus of OVX rodents; format: in vivo; details: for Vaginal smear cytology during and after treatment: OVX rats
# [7] = tested on: ERα in MCF-7Ca cells; assay: ERα transactivation in MCF-7Ca breast cancer cells; format: cell-based, human; details: cultured MCF-7Ca cells, 1 nM
# [8] = biological target: T1, ERα (Homo sapiens, UniProt P03372); assay: Estrogen receptor; format: binding
# T1 sequence (P03372 1-595): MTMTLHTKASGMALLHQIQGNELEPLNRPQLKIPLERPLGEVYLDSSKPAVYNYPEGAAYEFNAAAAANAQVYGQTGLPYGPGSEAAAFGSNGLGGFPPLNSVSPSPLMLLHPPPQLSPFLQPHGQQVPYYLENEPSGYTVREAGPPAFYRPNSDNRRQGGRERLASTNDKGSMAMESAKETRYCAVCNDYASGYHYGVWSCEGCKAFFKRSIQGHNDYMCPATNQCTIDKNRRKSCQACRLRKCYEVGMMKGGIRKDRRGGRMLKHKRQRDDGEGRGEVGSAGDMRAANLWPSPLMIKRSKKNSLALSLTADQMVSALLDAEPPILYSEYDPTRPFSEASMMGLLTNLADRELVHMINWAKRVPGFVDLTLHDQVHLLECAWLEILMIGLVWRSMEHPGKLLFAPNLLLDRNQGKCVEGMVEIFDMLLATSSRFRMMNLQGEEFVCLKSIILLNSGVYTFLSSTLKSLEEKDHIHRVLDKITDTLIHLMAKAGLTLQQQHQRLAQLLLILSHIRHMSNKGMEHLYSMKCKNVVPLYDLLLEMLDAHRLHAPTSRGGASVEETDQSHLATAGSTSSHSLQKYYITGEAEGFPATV
# [9] = biological target: ERβ (Homo sapiens, UniProt Q92731); assay: Estrogen receptor; format: binding
# Sequence of ERβ (Q92731 whole entry, species assumed): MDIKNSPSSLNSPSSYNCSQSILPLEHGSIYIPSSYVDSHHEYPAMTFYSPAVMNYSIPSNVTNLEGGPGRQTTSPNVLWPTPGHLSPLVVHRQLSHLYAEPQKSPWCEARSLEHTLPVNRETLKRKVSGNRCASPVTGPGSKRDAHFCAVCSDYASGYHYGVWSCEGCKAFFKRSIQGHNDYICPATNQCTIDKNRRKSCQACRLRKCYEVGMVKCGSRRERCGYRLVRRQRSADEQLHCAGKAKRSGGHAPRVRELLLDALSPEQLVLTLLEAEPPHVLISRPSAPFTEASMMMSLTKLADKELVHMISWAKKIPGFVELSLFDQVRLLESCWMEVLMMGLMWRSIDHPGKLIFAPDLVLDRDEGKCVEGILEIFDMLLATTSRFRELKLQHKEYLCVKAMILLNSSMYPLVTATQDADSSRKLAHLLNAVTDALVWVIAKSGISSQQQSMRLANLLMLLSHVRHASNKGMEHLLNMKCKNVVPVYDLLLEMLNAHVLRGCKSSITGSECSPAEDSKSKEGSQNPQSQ
# [10] = tested on: OVX Sprague-Dawley rats; assay: Transient middle cerebral artery occlusion; format: in vivo, rat
# [11] = tested on: CD1 mice; assay: Forced swim test; format: in vivo, mouse
# [12] = tested on: OVX rat; assay: OVX rat hot flush model; format: in vivo; details: p.o. 30 μg/kg
# [13] = tested on: middle-aged OVX Fisher-344 rats; assay: Delay match-to-sample plus maze test; format: in vivo, rat; details: continuous s.c. minipump 4 μg daily, 48 days, versus control
# [14] = tested on: OVX rat brain; assay: Markers of estrogenic effects in the brain; format: in vivo; details: for Progesterone receptor (PR) expression in the preoptic area of the hypothalamus: OVX Sprague-Dawley rats, DHED s.c. 50 μg/kg, ICI 182,780 s.c. 1 mg/kg 1 h before DHED
# [15] = tested on: human MCF7-Ca xenografts; assay: MCF-7Ca xenograft growth in nude mice; format: in vivo, mouse; details: 100 μg/kg s.c. daily for 8 weeks
# [16] = physchem
# [17] = 0.8 to 100 μg/kg s.c. 1 h before tMCAO
compound,measurement,setting,value
"16,16,17-d3-DHED",Site of labelled E2 formation from deuterated prodrug,"[1]; OVX Sprague-Dawley rats, i.v., tissue 15 min post-dosing",d3-E2 was produced exclusively in the brain
"C[C@]12CC[C@@H]3c4ccc(O)cc4CC[C@H]3[C@@H]1CC[C@@H]2O [Compound E2, 17β-estradiol, reference compound]",IC50,"[2]; read-out: Inhibition of lipid peroxidation: IC50, FTC",11.8 ± 1.6 µM
same,IC50,"[3]; read-out: Inhibition of lipid peroxidation: IC50, TBARS",3.9 ± 0.4 µM
same,Binding to human plasma proteins,"[4]; average ± SEM, n = 3",97.8 ± 0.3%
same,ERE reporter activation / bioluminescence in peripheral tissues,[5],significant increase of photon emission from the hepatic area
same,Vaginal smear cytology during and after treatment,[6],vaginal smears with many cornified cells
same,ERα transactivation,[7],induced the expected cancer-promoting ERα transactivation
"C[C@]12CC[C@H]3[C@@H](CCC4=CC(=O)C=C[C@@]43O)[C@@H]1CC[C@@H]2O [DHED, 10β,17β-dihydroxyestra-1,4-dien-3-one]",IC50,[8],> 10 µM
same,IC50,[9],> 10 µM
same,"Inhibition of lipid peroxidation: IC50, FTC",[2],n.i.
same,"Inhibition of lipid peroxidation: IC50, TBARS",[3],n.i.
same,Binding to human plasma proteins,[4]; human,58.0 ± 0.6%
same,Prodrug level in the brain,[1]; OVX rats after systemic dosing,did not detect DHED in the brain
same,Oral absorption,"[1]; PK studies of E2 in brain and serum, p.o. (table S1)",complete absorption after oral administration
same,half-life,"[1]; female, Sprague-Dawley, rat, serum, iv, 200 ug/kg",5.1 ± 0.6 min
same,ERE reporter activation / bioluminescence in peripheral tissues,[5],did not activate the ERE reporter construct
same,Neuroprotection with post-infarct treatment,[10]; 100 μg/kg s.c. after tMCAO,had a neuroprotective effect
same,Infarct volume,[10]; [17],dose-dependent reduction of the infarct volumes
same,Neurological deficits (ND score),[10]; [17],attenuation of neurological deficits
same,Antidepressant-like activity in the FST,"[11]; 10 μg/kg s.c. daily for 5 days, 1 h after last injection",outperformed direct administration of E2
same,Tail-skin temperature rise,[12],blunted the tail-skin temperature rise
same,Working memory errors,[13],significantly decreased working memory errors
same,ChAT-IR stereological cell counts in medial septum and vertical diagonal band,"[14]; OVX Fischer 344 rats, 4 μg/day s.c. pumps, 48 days",increased choline acetyltransferase immunoreactive (ChAT-IR) stereological cell counts
same,Dendritic spines and spine heads in hippocampal CA1 neurons,"[14]; OVX Fischer 344 rats, 10 μg s.c. every four days for 40 days",increased the number of dendritic spines and spine heads
same,Progesterone receptor (PR) expression in the preoptic area of the hypothalamus,[14],stimulated progesterone receptor (PR) expression
same,Expression of estrogen-regulated uterine proteins,"[6]; OVX Swiss-Webster mice, 50 μg/kg s.c. daily for 5 days, versus control",no changes in the expression
same,Vaginal smear cytology during and after treatment,[6],remained continuously in diestrus
same,Wet uterus weight gain (uterotrophic effect),"[6]; OVX rodents, i.v., s.c., p.o. or 48-day s.c. minipump",did not result in wet uterus weight gain
same,Growth of aromatase-transfected MCF-7Ca xenografts,[15],did not stimulate the growth
same,solubility,[16],60.3 ± 1.7 µg/mL
"C[C@]12CC[C@@H]3c4ccc(O)cc4C[C@@H](CCCCCCCCC[S+]([O-])CCCC(F)(F)C(F)(F)F)[C@H]3[C@@H]1CC[C@@H]2O (stereo partly shown) [ICI 182,780]",Effect of ER antagonist on antidepressant-like effect of E2 and DHED,"[11]; 4 mg/kg s.c. co-injected with E2 or DHED 50 μg/kg s.c., 5 days",completely blocked this antidepressant-like effect
same,Brain concentration by LC-MS/MS,"[11]; 15 min after completion of the FST, systemic dosing",6.6 ±0.9 ng/g tissue
same,Progesterone receptor (PR) expression in the preoptic area of the hypothalamus,[14],abolished the effect of DHED treatment on PR induction
"C[C@]12CCC(=O)C=C1CC[C@@H]1[C@@H]2CC[C@]2(C)C(=O)CC[C@@H]12 [Δ^4A, Δ^4-androstenedione]",ERα transactivation,[7],induced the expected cancer-promoting ERα transactivation
